In assay [1] the target is αvβ8 (Homo sapiens (Human), UniProt P06756+P26012). The experiment in a line: αVβ8-LAP-TGF β1 integrin binding assay (integrin coupled beads, flow cytometry). The following applies: for IC50: ligand LAP-TGF β1 20 nM, integrin 10 nM. As to the method: (§1) αVβ6/αVβ8-LAP-TGF β1 Binding Assay
(§2) Integrins αVβ6/αVβ8 coupled beads are treated with an αVβ6/αVβ8 ligand (e.g., LAP TGF-β1 (LAP1)), and the complex is incubated with a primary antibody (Ab), which can be labeled for detection (e.g., fluorescently labeled), and optionally with a secondary antibody, which can be labeled for detection (e.g., fluorescently labeled). Reaction between integrin coupled beads and the ligand was considered as the full reaction, and reaction without the ligand or a compound of the disclosure was considered as the blank reaction. The complex is analyzed, e.g., by either plate reader or Flow Cytometer, to determine modulation of binding between αVβ6/αVβ8 and the ligand (e.g., LAP-TGF β1) by the compounds of the present application.
All αv Integrins are known to bind to proteins with a RGD motif. Two RGD ligands were used in this study: Vitronectin (VN) as a ligand for αvβ3 and αvβ5 (Wayner et al., J. Cell Biol., 113 (4), 919-929, 1991), and LAP TGF-β1 (LAP1) as a ligand for αvβ6 and αvβ8 (Rognoni et al., Nat. Med., 20(4): 350-359, 2014). CWHM12 was used as a positive control for αvβ6 and αvβ8 (Henderson et al., Nat. Med. 19(12), 10.1038/nm.3282 2013), and Cilengitide as a positive control for αvβ3 and αvβ5 (Kumar et al., J. Pharmacol. Exp. Ther., 283, 843-853, 1997).
The integrin coupled Dyna beads were allowed to interact with respective ligands. The integrin-ligand complex was detected with either Primary/Secondary Antibody conjugated with Fluorescein Isothiocyanate (FITC). For αvβ3 and αvβ5, Vitronectin was used as a ligand and a primary antibody conjugated with FITC (Anti-VN-FITC Ab) was used to detect the interaction. For αvβ6 and αvβ8, LAP-TGF β1 was used as ligand and a primary antibody against LAP1 (Anti-LAP1 Ab) and a secondary antibody conjugated with FITC were used to detect the αv β6/αvβ8-LAP-TGF β1 complex. Fluorescence was measured by Flow Cytometry analysis.
5 mg of Dyna beads were weighed in a low protein binding microfuge (Eppendorf) tube (1.5 mL volume). The beads were re-suspended in 1 mL of Sodium Phosphate Buffer and vortexed at high speed for 30 seconds. The tube was then placed in a tube roller and tilt rotated for 10 min. After tilt rotation, the tube was placed on the Magna Spin and the beads were allowed to settle. The supernatant was discarded and the beads were washed three times. The beads were then re-suspended in 100 μL of Sodium Phosphate Buffer and 20 μL of washed beads were distributed into 5 low protein binding Eppendorf tubes (1 mg of beads in each tube). The beads were used for coupling integrins. […]
(§3) The tubes were taken out and subjected to a quick spin. […] The amount of protein bound to beads was quantified by measuring the sum of protein left in the Supernatant, W1, W2, W3 and W4 through the Micro BCA method. […]
Background: A flow cytometer gives signals particle by particle.

Assay [2] has as its target αvβ6 (Homo sapiens (Human), UniProt P06756+P18564). Description: αVβ6-LAP-TGF β1 integrin binding assay (integrin coupled beads, flow cytometry). The following applies: ligand LAP-TGF β1 10 nM; integrin 10 nM. On the procedure: as §1, §2
All αv Integrins are known to bind to proteins with a RGD motif. […]
The integrin coupled Dyna beads were allowed to interact with respective ligands. The integrin-ligand complex was detected with either Primary/Secondary Antibody conjugated with Fluorescein Isothiocyanate (FITC). […] Fluorescence was measured by Flow Cytometry analysis. […]
as §3

Sequence of αvβ8 (P06756 31-992): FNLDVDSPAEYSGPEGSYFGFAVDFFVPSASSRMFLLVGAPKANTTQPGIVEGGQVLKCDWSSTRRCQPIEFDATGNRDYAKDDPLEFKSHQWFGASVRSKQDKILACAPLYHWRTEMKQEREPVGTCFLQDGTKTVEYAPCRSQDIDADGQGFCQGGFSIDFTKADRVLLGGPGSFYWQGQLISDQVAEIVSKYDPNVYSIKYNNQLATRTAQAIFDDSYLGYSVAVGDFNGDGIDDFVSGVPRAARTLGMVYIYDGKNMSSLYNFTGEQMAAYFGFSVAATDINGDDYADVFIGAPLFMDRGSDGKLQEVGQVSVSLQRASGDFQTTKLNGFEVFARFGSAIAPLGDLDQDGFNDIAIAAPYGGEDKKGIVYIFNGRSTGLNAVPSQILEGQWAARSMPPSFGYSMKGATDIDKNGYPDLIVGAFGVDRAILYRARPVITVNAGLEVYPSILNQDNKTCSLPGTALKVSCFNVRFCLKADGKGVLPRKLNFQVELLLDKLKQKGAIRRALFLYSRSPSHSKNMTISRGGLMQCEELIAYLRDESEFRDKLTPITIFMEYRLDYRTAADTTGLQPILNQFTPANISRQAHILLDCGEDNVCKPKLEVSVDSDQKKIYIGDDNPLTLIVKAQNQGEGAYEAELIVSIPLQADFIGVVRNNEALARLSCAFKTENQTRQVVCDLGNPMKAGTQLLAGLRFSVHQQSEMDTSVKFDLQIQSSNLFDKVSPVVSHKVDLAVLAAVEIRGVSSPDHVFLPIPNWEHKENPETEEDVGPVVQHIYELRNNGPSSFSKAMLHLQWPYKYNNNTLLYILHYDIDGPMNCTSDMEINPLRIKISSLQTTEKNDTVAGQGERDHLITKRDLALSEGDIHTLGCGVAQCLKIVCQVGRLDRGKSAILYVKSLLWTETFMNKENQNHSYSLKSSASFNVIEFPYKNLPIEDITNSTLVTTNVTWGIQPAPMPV
Sequence of αvβ8 (P26012 43-684): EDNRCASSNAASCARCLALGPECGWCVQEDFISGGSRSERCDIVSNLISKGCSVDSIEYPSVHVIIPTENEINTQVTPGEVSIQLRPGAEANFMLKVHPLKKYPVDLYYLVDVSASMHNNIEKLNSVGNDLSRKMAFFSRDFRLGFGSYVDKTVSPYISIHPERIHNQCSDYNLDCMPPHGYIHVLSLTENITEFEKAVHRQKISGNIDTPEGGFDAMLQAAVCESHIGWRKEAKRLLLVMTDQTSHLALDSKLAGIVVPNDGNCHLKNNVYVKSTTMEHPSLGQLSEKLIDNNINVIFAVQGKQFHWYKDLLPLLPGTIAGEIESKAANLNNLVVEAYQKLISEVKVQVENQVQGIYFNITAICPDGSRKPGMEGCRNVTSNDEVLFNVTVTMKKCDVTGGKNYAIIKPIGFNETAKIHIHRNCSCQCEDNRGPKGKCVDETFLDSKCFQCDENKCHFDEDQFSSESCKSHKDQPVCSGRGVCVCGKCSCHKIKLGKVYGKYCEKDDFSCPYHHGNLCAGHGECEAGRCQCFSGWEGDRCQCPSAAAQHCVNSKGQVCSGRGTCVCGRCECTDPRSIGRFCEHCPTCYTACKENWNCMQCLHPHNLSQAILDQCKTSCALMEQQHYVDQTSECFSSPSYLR
Sequence of αvβ6 (P06756 31-992): as the sequence (P06756 31-992) above
Sequence of αvβ6 (P18564 22-707): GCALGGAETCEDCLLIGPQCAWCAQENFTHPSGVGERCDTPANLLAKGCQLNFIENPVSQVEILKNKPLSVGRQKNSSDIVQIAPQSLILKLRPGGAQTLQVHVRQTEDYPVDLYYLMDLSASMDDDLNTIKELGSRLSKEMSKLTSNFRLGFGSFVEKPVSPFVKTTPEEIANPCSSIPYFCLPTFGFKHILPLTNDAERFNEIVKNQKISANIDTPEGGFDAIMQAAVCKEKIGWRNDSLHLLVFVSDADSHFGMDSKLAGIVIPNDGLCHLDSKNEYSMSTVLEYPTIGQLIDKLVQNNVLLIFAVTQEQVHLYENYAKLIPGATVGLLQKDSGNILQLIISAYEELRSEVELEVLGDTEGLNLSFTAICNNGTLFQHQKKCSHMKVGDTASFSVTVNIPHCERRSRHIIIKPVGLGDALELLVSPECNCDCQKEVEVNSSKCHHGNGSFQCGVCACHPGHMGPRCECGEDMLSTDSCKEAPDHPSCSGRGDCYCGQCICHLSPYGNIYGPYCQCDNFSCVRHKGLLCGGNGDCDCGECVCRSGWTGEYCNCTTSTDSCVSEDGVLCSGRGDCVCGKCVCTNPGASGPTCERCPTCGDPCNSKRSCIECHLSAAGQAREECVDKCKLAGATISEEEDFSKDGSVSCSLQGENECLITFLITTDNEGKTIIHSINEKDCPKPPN

Broadly, the IC50 is the concentration needed to halve the response being measured. Higher therefore signals lower potency. As to `O=C(O)CC(c1cccc(C(F)(F)F)c1)N1CCN(CCCCNc2nc3ccccc3[nH]2)C1=O` (stereo not drawn) [Compound A1, 3-(3-(4-((1H-benzo[d]imidazol-2-yl)amino)butyl)-2-oxoimidazolidin-1-yl)-3-(3-(trifluoromethyl)phenyl)propanoic acid], the IC50 in assay [1] was determined as 50.4 nM; in assay [2], 376 nM. For the same molecule, the αvβ8/αvβ6 in assay [1] (ratio of αvβ8 IC50 to αvβ6 IC50) is on record as 0.13.

In turn, `O=C(O)CC(c1cccc(C(F)(F)F)c1)N1CCN(CCCCNC2=NCc3ccccc3C2)C1=O` (stereo not drawn) [Compound A8] yielded an IC50 in assay [1] of 622 nM.

In the case of `O=C(O)CC(c1cccc(C(F)(F)F)c1)N1CCN(CCCCNc2ccccn2)C1=O` (stereo not drawn) [Compound A10], the IC50 in assay [1] came to 232 nM; in assay [2], 394 nM.

The values are drawn from patent US10118929B2, “Nonanoic and decanoic acid derivatives and uses thereof” (SciFluor Life Sciences, Inc., priority 2016, dated 2018).
